Laboratory results: patent US10967000B2, “Cell-penetrating peptide, conjugate comprising same and composition comprising same” (GemVax & KAEL Co., Ltd., priority 2012, dated 2021)
No end group written: not given here. *: point of attachment. FITC = O=C1OC2(c3ccc(O)cc3Oc3cc(O)ccc32)c2ccc(NC(=S)*)cc21

Experiments:
Huh7 cell line = experiment: Flow cytometry of cell penetrating property in Huh7 cell line; type: cell-based, human
Protocol: (§1) The cell line was divided in a 6-well plate and cultured in a medium containing 10% fetal bovine serum (Invitrogen, USA), 100 μg/ml penicillin, 100 units/ml streptomycin at 37° C., 5% CO2 incubator for 12 hours. After washing the cell line with PBS, starvation was induced in a Minimum Essential Medium for an hour. 20 uM of each carrier peptide was treated and cultured at 37° C. for an hour. After repeating the step of washing the cells with PBS for three times, Trypsin-EDTA was treated form 10 mins at 37° C. to separate the carrier peptide on the outside of the cell. cells were collected with refrigerated PBS and centrifugation was performed to repeat the step of washing the cells for three times. After then, the cells were suspended in 0.5 ml of PBS containing 4% Paraformaldehyde and fluorescence of the cells was analyzed using FACS Calibur (Becton Dickinson). The cellular uptake aspect of control and various peptides combined with FITC was compared and analyzed by MFI (Mean Fluorescence Intensity).
To investigate cell penetrating property of PEP1, flow cytometry was performed in Huh7 cell line treated with PEP1. The analytical methods used were same as described in above (1) HeLa cell line analysis. […] (FIG. 9 and FIG. 10)

Huh7, bmDC, CHO, COS7 = experiment: Flow cytometry depending on concentration in various cell lines; type: cell-based
Protocol: (§2) Cells were cultured at 37° C., 5% CO2 incubator and grown to 90˜100% confluence. The confluence. The medium was removed and washed with PBS, 1 mL of OPTI-MEM was added to each well and cultured at 37° C., 5% CO2 incubator for an hour for cell starvation. After washing with OPTI-MEM once, cells were treated with peptide in OPTI-MEM (concentration of […]) and FITC (concentration of 10 μM), cultured at 37° C., 5% CO2 incubator. After removing the medium, cells were washed with 1×PBS three times and harvested using Trysin/EDTA. The cellular uptake of FITC and the rest of FITC-conjugated peptide was compared and analyzed with untreated cell cells as a control.
(§3) Cell penetrating property of PEP1 was investigated by treating PEP1 with various cell various cell lines depending on concentrations and time. Specific analytical methods followed the methods described in Example 2. […] In the case of HepG2 cell line, cell penetrating property of TAT was increased whereas that of PEP1 was decreased at a concentration of 50 μM. […] When observing cell penetrating property of the peptide depending on time, the cell penetrating property was increased in Huh7, MCF7 and HeLA cell lines. Especially, in MCH7 cell line when 5 μM of the peptide was treated, cell penetrating property was increased 10 times higher in all time (FIG. 24 to FIG. 26)

human T lymphocyte = experiment: FACS of cell penetrating property in human T lymphocyte; type: cell-based
Protocol: as §1
To investigate cell penetrating property of PEP1, the peptide was treated in human T lymphocyte, and FACS (Fluorescence-activated sell sorting) was performed as flow cytometry analysis. The analytical method used was same as described in above (1) HeLa cell line analysis. […] (FIG. 11 and FIG. 12)

[1] = tested on: THP1 (Human mononuclear cell line); experiment: Flow cytometry of cell penetrating property, THP1; type: cell-based
From the text: (§4) Jurkat (Human T cell line), THP1 (Human mononuclear cell line), Raji (Human B cell line), K562 cell line (Human Leukemia cell line) were used as enriched cell line to treat the peptide depending on concentrations, temperature and time and to analyze the cell penetrating property of the peptide. […] There was no difference in cell penetrating property of PEP1 in all cell lines depending on temperature.

hPBMC = experiment: Cell penetrating property after treatment with various antibodies; type: cell-based, human
Protocol: The fact that HSP70/90 plays an important role in cell penetrating property of Pep1 was analyzed using HSP70/90 antibody. Antibodies of GAPDH, HSP70, HSP90 and enolase were treated in PBMC separated from human blood, lymphocyte, and Jurkat to perform flow cytometry. Antibodies of GAPDH and enolase were used as control.
(§5) To compare and analyze the cell penetrating property of the peptide using various various antibodies, HSP70, enolase, GAPDH (santacruz), HSP90 antibodies were used. Cells were treated with heparin (10 μg/ml), methyl beta cyclodextrin (5 mM), nocodazole (20 μM), Brefeldin A (10 μM), cytochalasin F (5 μM) or choloroqune (100 μM) an hour before cells were cultured by the peptide. After then, cells were washed with PBS, peptide treatment was performed by flow cytometry analysis as the same method described in Example 2. Anti-HSP70, anti-Enolase and anti-GAPDH antibodies were purchased from Santacruz and anti-HSP90 antibody as purchased from Abcam. To analyze the role of each protein in penetration into cells, cells were treated with antibodies corresponding to the proteins with the same method.

HepG2 cell line = experiment: Flow cytometry depending on concentration, HepG2; type: cell-based, human; conditions: HepG2, 50 μM
Protocol: as §2, §3

human PBMC [2] = experiment: Flow cytometry after chemical treatment, human PBMC; type: cell-based; conditions: whole PBMC, chemical treatment an hour before peptide
Protocol: With PBMC separated from human blood, chemical treatment utilization analysis was performed to verify a mechanism of cell penetration. Concentration of chemical treatment was decided based on the data reported in JBC(278(36), 34141-34149 in […]. OPTI-MEM was treated with chemical treatment and washed with PBS an hour before PEP1 peptide was treated and flow cytometry analysis was performed.
as §5

Jurkat cell line = experiment: Flow cytometry after chemical treatment, Jurkat; type: cell-based, human; conditions: all of the chemical treatment
Jurkat, THP1, Raji, K562 = experiment: Cell penetrating property depending on concentration, temperature and time in enriched cell lines; type: cell-based, human
From the text: as §4

MCF7 cell line = experiment: Flow cytometry depending on concentration and time, MCF7; type: cell-based, human
Protocol: as §2, §3

human PBMC [3] = experiment: Flow cytometry of cell penetrating property in human PBMC; type: cell-based
Protocol: PBMC (peripheral blood mononuclear cell) and lymphocytes were prepared from the human blood samples (50 ml) collected from healthy subjects using Biocoll Separating Solution (Biochrom AG, Berlin, Germany).
PBMC separated from human blood was used to treat the peptide depending on concentrations, temperature and time and to analyze the cell penetrating property of the peptide. […] Depending on concentrations, cell penetrating property of PEP1 was increased in both lymphocytes and the monocytes. […] (FIG. 32 to FIG. 34)

[4] = tested on: Huh7, MCF7 and HeLA cell lines; experiment: Flow cytometry depending on time; type: cell-based, human
Protocol: as §2, §3

CHO and HepG2 cells = experiment: Uptake analysis of pep1-FITC in vitro by flow cytometry (primary experiment); type: cell-based
Protocol: Flow cytometry and Confocal microscopy analysis were performed to compare the degree of cellular uptake among differentcell lines treated with pep1 (SEQ ID NO: 1) and the previously known PTD, TAT ([…]) (SEQ ID NO: 10) of HIV.
as §2

Raji (Human B cell line) = experiment: Flow cytometry of cell penetrating property, Raji; type: cell-based
From the text: as §4

[5] = tested on: K562 cell line (Human Leukemia cell line); experiment: Flow cytometry of cell penetrating property, K562; type: cell-based
From the text: as §4

Huh7, HepG2, CHO, bmDC = experiment: Flow cytometry and confocal analysis depending on location of FITC; type: cell-based; conditions: fluorescence microscope
Protocol: as §1
To investigate cell penetrating property of PEP1 in various cell lines, flow cytometry and Confocal microscope analysis were performed using a conjugate of PEP1 combined with FITC at N, and C-terminal of the peptide. The analytical method used was same as described in above (1) HeLa cell line analysis. The cell lines used were Huh7, HepG2, CHO, bmDC. […] (FIG. 14)

luciferase in Huh7 cells = experiment: Luciferase assay with siRNA-CPP conjugates, Huh7; type: cell-based, human; conditions: Huh cell line, siRNA 400 nM, 16 hours
Protocol: Huh7 (human hepatocellular carcinoma) cells obtained from ATCC was cultured in a RPMI 1640 medium (Hyclon) containing 10% fetal bovine serum (Invitrogen Co., Carlsbad, Calif., USA), […] L-glutamine, 100 ug/ml penicillin and 100 units/ml of streptomycin at 37° C., 5% CO2 incubator.
(§6) 2×10^5 of Huh7 cells were inserted into each well of a 24 well plate and were grown. Transient transfection on the cells was performed using 2 ug of luciferase objective DNA and lipofectamin 2000 (Invitrogen Co., Carlsbad, Calif., USA). After 4 hours, lipofectamin 2000 was perfectly washed with PBS several times; siRNA of final concentration of […] was treated in 500 ul of Opti-MEM (Invitrogen Co., Carlsbad, Calif., USA) and was reacted at 37° C. incubator for 16 hours. To terminate the reaction, cells were washed with PBS and proteins were lysed using Reporter Lysis Buffer (Progema Co., Madison, Wis., USA) solution and the luminescence was measured by luminometer (Turner BioSystem, Sunnyvale, Calif., USA) using luciferase reagent (Promega Co., Madison, Wis., USA). Efficacy of siRNA was corrected by Bradford protein assay.

luciferase in CHO cell = experiment: Luciferase assay with siRNA-CPP conjugates, CHO; type: cell-based
Protocol: as §6
To verify cell penetrating property of pep1, siRNA for luciferase purpose was produced produced and luciferase activation was measured using Huh7 (human hepatocelular carcinoma) cells and CHO cell line. The result verified that activation of penetratine and pep1 in siRNA combined with luciferase was reduced approx. 28%, 20% compared with penetratin and pep1 in siRNA combined with control in Huh cell line. […]

## EARPALLTSRLRFIPK (listed as Homo sapiens) [pep1]
Huh7 cell line
  cell penetrating property compared with TAT and control: lower than that of TAT but higher than that of control
Huh7, bmDC, CHO, COS7
  cell penetrating property depending on concentrations: tendency to increase
Human T lymphocyte
  cell penetrating property, times higher than HIV derived TAT: 6 times
  cell penetrating property, times higher than control FITC: 25 times
[1]
  cell penetrating property depending on time: decreased over time
hPBMC
  absorption after treatment with HSP70 and HSP90 specific antibodies: remarkably reduced
HepG2 cell line
  cell penetrating property at a concentration of 50 μM: decreased
Human PBMC [2]
  effect of chemical treatment (MatCD and others) on cell penetrating property: tend to be suppressed
Jurkat cell line
  effect of chemical treatment on cell penetrating property: tendency to suppress
Jurkat, THP1, Raji, K562; all cell lines
  cell penetrating property depending on concentrations: tendency to increase
  cell penetrating property depending on temperature: no difference
Jurkat, THP1, Raji, K562; cell lines other than THP1
  increase of cell penetrating property depending on time: more than 3 times
MCF7 cell line; MCF cell line
  cell penetrating property, times higher than TAT: 4 times
MCF7 cell line; MCH7 cell line, 5 μM of the peptide, comparator not stated
  cell penetrating property, times higher in all time: 10 times
Human PBMC [3]; lymphocytes
  cell penetrating property, increase (times): 1.8 times
Human PBMC [3]; lymphocytes and monocytes
  cell penetrating property depending on concentrations: increased
  cell penetrating property depending on time: tendency to increase
Human PBMC [3]; monocytes, 5 hours
  increase of cell penetrating property compared to TAT: more than 20%
Human PBMC [3]; whole PBMC
  cell penetrating property depending on concentrations and time: increased
  cell penetrating property, times higher than TAT: 1.4 times
[4]
  cell penetrating property depending on time: increased
CHO and HepG2 cells
  cell penetrating ability depending on position of FITC: best when FITC was conjugated with lysine residue in C terminal
CHO and HepG2 cells; FITC-labelled peptides
  cell penetrating ability compared with TAT: better cell penetrating ability than TAT

## YGRKKRRQRRR [TAT, reference compound]
Huh7, bmDC, CHO, COS7
  cell penetrating property depending on concentrations: tendency to increase
Raji (Human B cell line)
  cell penetrating property, TAT compared with PEP1: higher cell penetrating property than PEP1
[5]
  cell penetrating property, TAT compared with PEP1: higher cell penetrating property than PEP1
hPBMC
  absorption after treatment with HSP70 and HSP90 specific antibodies: not affected
HepG2 cell line
  cell penetrating property at a concentration of 50 μM: increased
Human PBMC [2]
  effect of chemical treatment (MatCD and others) on cell penetrating property: increased
Jurkat cell line
  effect of chemical treatment on cell penetrating property: no effect
Human PBMC [3]; whole PBMC
  cell penetrating property depending on concentrations and time: increased

## pep1-FITC: pep1 labeled with FITC at the C-terminal (lysine) (EARPALLTSRLRFIPK(FITC); listed as Homo sapiens)
Huh7, HepG2, CHO, bmDC
  penetration into the cytoplasm, C-terminal vs N-terminal FITC: higher cell penetrating property to penetrate into the cytoplasm than PEP1 combined with FITC at N-terminal
hPBMC
  absorption after treatment with HSP70 and HSP90 specific antibodies: remarkably reduced
hPBMC; control antibodies
  absorption after treatment with GAPDH or Enolase specific antibodies: no effect

## siLuc conjugation with Mercaptoacetyl-Ahx-EARPALLTSRLRFIPK (EARPALLTSRLRFIPK-OH; not fully specified (N-terminus); printed as Mercaptoacetyl-Ahx-EARPALLTSRLRFIPK; also: conjugated to luciferase siRNA; UniProt O14746 611-626, looked up, fragment) [siLuc-pep1, luciferase siRNA conjugated to pep1 via thiol-maleimide]
Luciferase in Huh7 cells
  reduction of luciferase activation compared with the same peptide in siRNA combined with control: ~20%
Luciferase in CHO cell
  inhibition of luciferase activity: about 30%

## siLuc conjugation with Mercaptoacetyl-Ahx-LRALPKRPFISRLTEA [siLuc-scrambled pep1]
Luciferase in Huh7 cells
  reduction of luciferase activation compared with the same peptide in siRNA combined with control: no significant difference

## siLuc conjugation with Mercaptoacetyl-Ahx-RQIKIWFQNRRMKWKK [siLuc-Penetratin]
Luciferase in Huh7 cells
  reduction of luciferase activation compared with the same peptide in siRNA combined with control: approx. 28%

## siLuc conjugation with Mercaptoacetyl-Ahx-YGRKKRRQRRR (not fully specified (N-terminus); printed as Mercaptoacetyl-Ahx-YGRKKRRQRRR; also: conjugated to luciferase siRNA; UniProt P04608 47-57, looked up, fragment) [siLuc-Tat(47-57)]
Luciferase in Huh7 cells
  reduction of luciferase activation compared with the same peptide in siRNA combined with control: no significant difference
